Measured values reported in ChEMBL document CHEMBL1201862, “PubChem BioAssay data set” (2004).
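Results reflect a 48-hour exposure of cells in 96-well plates to compound at five concentrations. GI50 marks 50% less growth.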 Activity calls are given as the source filed them. No stated cut-off is given here; in the data, active = GI50 up to about 1.1 µM and inactive = higher.

What was measured:
Experiment in all cases: NCI tumour cell line growth inhibition, 48 h
DMS-114 = system: DMS-114
SNB-78 = system: SNB-78
XF498 = system: XF498
DMS-273 = system: DMS-273
HOP-18 = system: HOP-18
M19-MEL = system: M19-MEL
KM-20L2 = system: KM-20L2
DLD-1 = system: DLD-1
RXF 631 = system: RXF 631

Structure (SMILES): CC(=O)C1=C(C)NC2C=CC=CN12 (stereo not drawn)
- GI50 (DMS-114): > 100 µM (inactive)
- GI50 (SNB-78): > 100 µM (inactive)
- GI50 (XF498): > 100 µM (inactive)
- GI50 (DMS-273): > 100 µM (inactive)
- GI50 (HOP-18): > 100 µM (inactive)
- GI50 (M19-MEL): > 100 µM (inactive)
- GI50 (KM-20L2): > 100 µM (inactive)
- GI50 (DLD-1): > 100 µM (inactive)

Structure (SMILES): CC(=O)OC1COC(N2C(=O)C(=O)c3ccccc32)C(OC(C)=O)C1OC(C)=O (stereo not drawn)
- GI50 (DMS-114): > 100 µM (inactive)
- GI50 (SNB-78): > 100 µM (inactive)
- GI50 (DMS-273): > 100 µM (inactive)
- GI50 (M19-MEL): 34.8 µM (inactive)
- GI50 (RXF 631): > 100 µM (inactive)
- GI50 (KM-20L2): > 100 µM (inactive)
- GI50 (DLD-1): > 100 µM (inactive)

Structure (SMILES): COc1ccc(C(c2c(O)c3ccccc3n(-c3ccccc3)c2=O)c2c(O)c3ccccc3n(-c3ccccc3)c2=O)cc1
- GI50 (DMS-114): > 100 µM (inactive)
- GI50 (SNB-78): > 100 µM (inactive)
- GI50 (XF498): 59.3 µM (inactive)
- GI50 (DMS-273): > 100 µM (inactive)
- GI50 (HOP-18): > 100 µM (inactive)
- GI50 (M19-MEL): > 100 µM (inactive)
- GI50 (KM-20L2): > 100 µM (inactive)
- GI50 (DLD-1): > 100 µM (inactive)

Structure (SMILES): Cc1cc(C)[n+]2c(c1)C=CC2.[O-][Cl+3]([O-])([O-])[O-]
- GI50 (DMS-114): 5.5 µM (inactive)
- GI50 (SNB-78): 21.2 µM (inactive)
- GI50 (DMS-273): 0.459 µM (active)
- GI50 (M19-MEL): 21.2 µM (inactive)
- GI50 (KM-20L2): 21.3 µM (inactive)
- GI50 (DLD-1): 10.7 µM (inactive)

Structure (SMILES): O=C(NN1C(=O)C(Cl)C1c1ccc(O)cc1)c1ccccc1O (stereo not drawn)
- GI50 (DMS-114): 14 µM (inactive)
- GI50 (SNB-78): 21.7 µM (inactive)
- GI50 (XF498): 11.1 µM (inactive)
- GI50 (DMS-273): 12.9 µM (inactive)
- GI50 (HOP-18): 15.9 µM (inactive)
- GI50 (M19-MEL): 21.7 µM (inactive)
- GI50 (DLD-1): 15.8 µM (inactive)

Structure (SMILES): O=C1C=C(O)c2nc(O)ccc2C1=O
- GI50 (SNB-78): > 100 µM (inactive)
- GI50 (XF498): > 100 µM (inactive)
- GI50 (DMS-273): > 100 µM (inactive)
- GI50 (M19-MEL): > 100 µM (inactive)
- GI50 (KM-20L2): > 100 µM (inactive)
- GI50 (DLD-1): > 100 µM (inactive)

Structure (SMILES): O=c1c2ccccc2oc2nccnc12
- GI50 (DMS-114): > 100 µM (inactive)
- GI50 (SNB-78): > 100 µM (inactive)
- GI50 (XF498): > 100 µM (inactive)
- GI50 (DMS-273): > 100 µM (inactive)
- GI50 (HOP-18): > 100 µM (inactive)
- GI50 (M19-MEL): > 100 µM (inactive)
- GI50 (RXF 631): > 100 µM (inactive)
- GI50 (KM-20L2): > 100 µM (inactive)
- GI50 (DLD-1): > 100 µM (inactive)

Structure (SMILES): O/N=C1/C(=C/c2ccc(Oc3ccccc3)cc2)CCCC1C(NO)c1ccc(Oc2ccccc2)cc1 (stereo not drawn)
- GI50 (DMS-114): 26.4 µM (inactive)
- GI50 (SNB-78): 34.8 µM (inactive)
- GI50 (XF498): 29.7 µM (inactive)
- GI50 (DMS-273): 28.6 µM (inactive)
- GI50 (HOP-18): > 100 µM (inactive)
- GI50 (M19-MEL): 39.6 µM (inactive)
- GI50 (RXF 631): 33.2 µM (inactive)
- GI50 (KM-20L2): 11.2 µM (inactive)
- GI50 (DLD-1): 66.1 µM (inactive)

Structure (SMILES): Cc1ccc(NC(=O)C(=O)C(C#N)c2ccccc2C)cc1C (stereo not drawn)
- GI50 (DMS-114): > 41.7 µM (inactive)
- GI50 (SNB-78): > 100 µM (inactive)
- GI50 (XF498): > 100 µM (inactive)
- GI50 (DMS-273): > 71.6 µM (inactive)
- GI50 (HOP-18): > 100 µM (inactive)
- GI50 (KM-20L2): > 79.8 µM (inactive)
- GI50 (DLD-1): 52.4 µM (inactive)

Structure (SMILES): N#CC(/C(CCCC(=O)Nc1cccc([N+](=O)[O-])c1)=N/NC(=O)c1cc2ccccc2cc1O)c1ccccc1 (stereo not drawn)
- GI50 (DMS-114): 20.2 µM (inactive)
- GI50 (XF498): 25 µM (inactive)
- GI50 (HOP-18): 18.3 µM (inactive)
- GI50 (M19-MEL): 17.9 µM (inactive)
- GI50 (RXF 631): 29.8 µM (inactive)
- GI50 (KM-20L2): 38 µM (inactive)
- GI50 (DLD-1): 36.7 µM (inactive)

Structure (SMILES): COc1ccc(/C=C2/CSC/C(=C/c3ccc(OC)c(OC)c3)C2=O)cc1OC
- GI50 (SNB-78): 2.12 µM (inactive)
- GI50 (XF498): 11.7 µM (inactive)
- GI50 (DMS-273): 1.03 µM (active)
- GI50 (HOP-18): 6.65 µM (inactive)
- GI50 (M19-MEL): 2.14 µM (inactive)
- GI50 (RXF 631): 1.99 µM (inactive)
- GI50 (KM-20L2): 2.3 µM (inactive)
- GI50 (DLD-1): 0.46 µM (active)

Structure (SMILES): CCCC(C)NC1=C(NC(C)=O)C(=O)c2ccccc2C1=O (stereo not drawn)
- GI50 (SNB-78): > 100 µM (inactive)
- GI50 (XF498): > 100 µM (inactive)
- GI50 (DMS-273): > 100 µM (inactive)
- GI50 (M19-MEL): 62.7 µM (inactive)
- GI50 (KM-20L2): > 100 µM (inactive)
- GI50 (DLD-1): > 100 µM (inactive)
